Consider two compounds from US9913811B2, “Hydroxynaphthoquinone compounds for treatment of non-small cell lung cancer” (Macau University of Science and Technology, priority 2016, dated 2018).

What all share (format): cell-based
The test system of one data set is CCD-19LU. In words: MTT cytotoxicity assay, non-cancerous lung fibroblast cells. The note with it: 24 h treatment. Here is the method: To show the highly cytotoxic properties of the present compound of Formula (IIa), H1650, HCC827 and H1975 NSCLC cells and non-cancerous lung fibroblast cells (CCD-19LU) were treated with the compound of Formula (IIa) and respective effects were observed. H1650 cells are adenocarcinoma cells harboring an E746-A750del deletion in exon 19 and other driver mutation genes which lead to a resistance against gefitinib. HCC827 cells are adenocarcinoma cells harboring high level EGFR amplification and an E746-A750del deletion in exon 19 without gefitinib-resistance. H1975 cells are adenocarcinoma cells harboring L858R substitution in exon 21 and a T790M substitution in exon 20 which is directly associated with resistance against gefitinib. The cells were obtained from the American Type Culture Collection (ATCC) and cultured in environment of 5% CO2 at 37° C. in RPMI-1640 medium supplemented with 10% fetal bovine serum (FBS), 100 units/mL penicillin, and 100 μg/mL streptomycin. The compound of Formula (IIa) was dissolved in DMSO. […] The absorbance was measured at 570 nm by a microplate reader (Tecan, Morrisville, N.C., USA).
The cell viability was calculated relative to untreated controls, with results based on at least three independent experiments.
A general note: Tetrazolium dyes change colour on reduction, which living cells bring about.

In data set [1] the test system is H1650 cells. In words: Annexin-V/PI apoptosis assay by flow cytometry, H1650. The protocol: (§1) Apoptosis assay was performed on gefitinib-resistant H1650 and H1975 cells. The cells (1.0×10^5 cells/well) were allowed to attach to a 6-well plate for 24 h, and the cells were treated with the various concentrations of the compound of Formula (IIa) for additional 24 h. At the end of incubation, the cells were harvested by trypsinization and washed twice with ice-cold PBS. After centrifugation and removal of the supernatants, cell pellets were resuspended in 100 μL 1×Annexin-binding buffer, 2 μL Annexin-V FITC and 2 μL PI (100 μg/ml) were added and incubated in the dark at room temperature for 15 min before further addition of 400 μL of 1×Annexin-binding buffer. The stained cells were analyzed quantitatively using a flow cytometer (BD Biosciences, San Jose, Calif., USA). Data were analyzed by Flow Jo software. FIG. 2A to 2E show fluorescence images of H1650 cells and FIG. 3A to 3E show fluorescence images of H1975 cells having been treated with the compound of Formula (IIa) at 1 μM, 2 μM, 3 μM and 4 μM; and DMSO (control, negative control).
(§2) Apoptosis assay and analysis with flow cytometer was performed as described in Example 1B with H1650 and H1975 cells and treatment with 4 μM of the compound of Formula (IIa) for 30 min in the presence or absence of N-acetylcystein (NAC) or treatment with DMSO (control, negative control). […]
A general note: A flow cytometer gives signals particle by particle.

In data set [2] the test system is H1975 cells. In words: Annexin-V/PI apoptosis assay by flow cytometry, H1975. The protocol: as §1, §2
In data set [3] the test system is H1650 cells. The experiment in a line: ROS generation, H1650. The note with it: 4 μM, 30 min treatment. Here is the method:
(§3) Apoptosis assay and analysis with flow cytometer was performed as described in Example 1B with H1650 and H1975 cells and treatment with 4 μM of the compound of Formula (IIa) for 30 min in the presence or absence of N-acetylcystein (NAC) or treatment with DMSO (control, negative control). FIG. 4A to 4D show fluorescence images of H1650 cells and FIG. 5A to 5D show fluorescence images of H1975 cells.
(§4) ROS generation was considered as the direct cause of apoptosis induced by the compound of Formula (IIa). After 30 min treatment of the H1650 and H1975 cells, the intensity of ROS increased more than 10-fold.

Data set [4] deals with H1975 cells. The experiment in a line: ROS generation, H1975. Conditions: 4 μM, 30 min treatment. Here is the method: as §3, §4
In data set [5] the test system is cleaved Caspase-3 and cleaved PARP in H1650 cells. In words: Western blot of cleaved caspase-3 and cleaved PARP, H1650. Conditions: 24 h. The protocol: (§5) The H1650 or H1975 cells were planted on 6-well plates, allowed to attach for 24 h, and treated with 4 μM of the compound of Formula (IIa) with or without NAC (10 mM) for 24 h. Cells were washed twice with cold PBS then lysed in RIPA lysis buffer containing protease and phosphatase inhibitors. Protein concentration of the cell lysates was measured using the Bio-Rad protein Assay kit (Bio-Rad, 7 Philadelphia, Pa., USA). After equalizing the protein concentrations of the samples, 5× laemmli buffer was added and the samples were boiled at 100° C. for 5 min. Equal amounts of protein samples (30 μg) were subjected to SDS-PAGE of a 10% gel. The separated proteins were transferred to a nitrocellulose (NC) membrane, which was then exposed to 5% non-fat dried milk in TBS containing 0.1% Tween (0.1% TBST) for 1 h at room temperature, followed by overnight incubation at 4° C. with primary antibodies. After washing three times by TBST (5 mins/time), the membranes were incubated for 1 h at room temperature with secondary fluorescent antibodies (1:10000 dilutions) to rabbit or mouse. The signal intensity of the membranes was detected by an LI-COR Odessy scanner (Belfast, Me., USA).
On the technique in general: A western blot detects proteins with antibodies after separation by electrophoresis.

In data set [6] the test system is cleaved Caspase-3 and cleaved PARP in H1975 cells. In words: Western blot of cleaved caspase-3 and cleaved PARP, H1975. Conditions: 24 h. Here is the method: as §5
A further data set addresses T1, EGFR (Homo sapiens, UniProt P00533, L858R/T790M).
T1 construct: H1975 cells were planted on 6-well plate, allowed to attach for 24 h, and treated; host or cells: H1975 NSCLC adenocarcinoma cells
The experiment in a line: Western blot of EGFR phosphorylation, H1975. The note with it: H1975 cells, 1, 2, 3, 4 μM, 2 h. The protocol:
H1975 cells were planted on 6-well plate, allowed to attach for 24 h, and treated with the various concentrations of the compound of Formula (Ic) for 2 h. Cells were washed twice with cold PBS then lysed in RIPA lysis buffer containing protease and phosphatase inhibitors. Protein concentration of the cell lysates was measured using the Bio-Rad protein Assay kit (Bio-Rad, 7 Philadelphia, Pa., USA). After equalizing the protein concentrations of the samples, 5× laemmli buffer was added and the samples were boiled at 100° C. for 5 min. Equal amounts of protein samples (30 μg) were subjected to SDS-PAGE of a 10% gel. The separated proteins were transferred to a nitrocellulose (NC) membrane, which was then exposed to 5% non-fat dried milk in TBS containing 0.1% Tween (0.1% TBST) for 1 h at room temperature, followed by overnight incubation at 4° C. with primary antibodies. After washing three times by TBST (5 mins/time), the membranes were incubated for 1 h at room temperature with the secondary fluorescent antibodies (1:10000 dilutions) to rabbit or mouse. The signal intensity of the membranes was detected by an LI-COR Odessy scanner (Belfast, Me., USA). Actin was used as the loading control for normalization.

The mark [7] stands for this setting: 4 μM Formula (IIa) with 10 mM NAC.

Take `CC(C)=CC[C@@H](O)C1=CC(=O)c2c(O)ccc(O)c2C1=O` [Formula (IIa), shikonin]: the “cytotoxicity on non-cancerous lung fibroblast cells compared with NSCLC cells” value with CCD-19LU is “much lower cytotoxicity”. Besides, the induction of apoptosis result is recorded as “significantly induced apoptosis” in the data set on H1650 cells [1] (H1650 cells, 1, 2, 3, 4 μM, 24 h) and “significantly induced apoptosis” in the data set on H1975 cells [2] (H1975 cells, 1, 2, 3, 4 μM, 24 h). Also, the “increase of intensity of ROS” value in the data set with H1650 cells [3] and with H1975 cells [4] was “more than 10 fold” in each case. The “cleaved Caspase-3 and cleaved PARP expression” value in data set [5] (4 μM) was “increase in cleaved Caspase-3 and cleaved Poly(ADP-ribose) Polymerase (PARP)”; in data set [6] (4 μM), “increase in cleaved Caspase-3 and cleaved Poly(ADP-ribose) Polymerase (PARP)”. Besides, on EGFR, the “EGFR phosphorylation (tyrosine 1068, 1173, 1045)” value is recorded as “suppress EGFR phosphorylation”.

Turning to `CC(=O)N[C@@H](CS)C(=O)O` [NAC, N-acetylcystein, reference compound], the “effect of NAC on apoptosis induced by the compound of Formula (IIa)” value in the data set with H1650 cells [1] (H1650 cells, 4 μM Formula (IIa) in presence of NAC) is given as “completely blocked the apoptosis”; in the data set with H1975 cells [2] (H1975 cells, 4 μM Formula (IIa) in presence of NAC), “completely blocked the apoptosis”. For the same compound, the “effect of NAC on apoptosis (cleaved Caspase-3, cleaved PARP) induced by Formula (IIa)” value in data set [5] (setting [7]) and in data set [6] (setting [7]) was “blocked” in each case.
